Like-named read-outs stand apart in the source and are kept apart here.
Key:
B16-F10 cell line [1] = format: cell-based, mouse; conditions: for Relative cell viability (%): mouse
Description: (§1) Table 23 below lists the study design for evaluating EC50 values of IM01, which contains 4-[(E)-2-(3,5-dihydroxyphenyl)ethenyl]benzene-1,3-diol.
(§2) Table 25 below lists the study design for evaluating EC50 values of IM01, which contains 4-[(E)-2-(3,5-dihydroxyphenyl)ethenyl]benzene-1,3-diol.

B16-F10 cells [2] = experiment: In vitro efficacy test: melanin content after α-MSH induction (Example 3); format: cell-based, mouse
Description: Alpha-melanocyte-stimulating hormone (α-MSH) is a peptide hormone capable of inducing melanin production. In this study, the effects of 4-[(E)-2-(3,5-dihydroxyphenyl)ethenyl]benzene-1,3-diol samples (having different concentrations of 4-[(E)-2-(3,5-dihydroxyphenyl)ethenyl]benzene-1,3-diol) on inhibition of melanin production were investigated.
B16-F10 cells were seeded in a 96-well plate at a density of 1×10^5 cells/well and cultured for 24 hours. The cells were then incubated with 0.1 μM α-MSH for 24 hours to include melanin production. The 4-[(E)-2-(3,5-dihydroxyphenyl)ethenyl]benzene-1,3-diol samples with different concentrations were then added to the cultured cells, which were cultured for an additional 24 hours. No α-MSH was used for the vehicle control group.
After the cells were washed once with 1 mL of 1×PBS, add 300 μL of 1×Trypsin-EDTA, they were placed in a 37° C. incubator for 5 minutes. Finally, 1 mL of DMEM was added to the cells, and the number of cells were counted by Trypan blue staining.
Cell suspension was centrifuged at 1500 g for 5 minutes at room temperature, followed by supernatant removal and air-dry of the pellet for 15 minutes. 1 N NaOH (containing 10% DMSO) was added to break up the pellet, followed by shaking by ultrasonic waves for 30 minutes and heating in a water bath at 80° C. for 1.5 hours. After cooling down, the suspension was taken and measured for absorbance at 405 nm. Results were calculated by deducting the reagent blank from the absorbance value at 405 nm and divided by the average absorbance value of the α-MSH Group.

B16-F10 cells [3] = experiment: In vitro efficacy comparison: melanin content, α-MSH 0.5 h then test article 30 h (Example 5); format: cell-based, mouse; conditions: for Melanin content (%) Mean: α-MSH 0.5 h then TA 30 h
Description: B16-F10 cells were seeded in a 96-well plate. Except the vehicle group, cells of the other groups were cultured in the presence of α-MSH for 0.5 hours first. The compositions for examination were then added to the culture medium and the cells were further cultured for 30 hours. The rest of the experimental conditions and procedures were similar to those described in Example 3. Afterwards, the cells were collected to evaluate the effect of 4-[(E)-2-(3,5-dihydroxyphenyl)ethenyl]benzene-1,3-diol compositions (IM01 Group) and Arbutin and 5-[(E)-2-(4-hydroxyphenyl)ethenyl]benzene-1,3-diol (IM00 Group) compositions on reducing melanin levels. The experimental design is summarized in Table 18 and results shown in both Table 18 and FIG. 5.

HRM-2 mice = experiment: In vivo efficacy: skin melanin content after UVB irradiation, different administration routes (Example 4A)
Description: The experiment tested a total of 20 mice using conventional diets in the adaptation period, the induction period, and the test period. After 7 days of adaptation, the mice were randomly divided into a control group and a UVB-c group according to body weight and body weight changes, so that no statistical difference in average body weight and body weight changes were noticeable among the groups. The UVB-c group was subjected to 150 mJ/cm^2/day of UVB irradiation with a frequency of irradiating the back of the mice three times a week.
Injection frequency was once a week, three times in total, with an average injection area of 6 cm^2 skin each time. The IM01—Topical group and the color cream group were administered by smearing once a day for a total of 21 days. […] During the treatment period, the backs of the mice were irradiated with 150 mJ/cm^2/day of UVB three times a week until sacrificed. It should be noted that the timing of UVB exposure and drug administration were staggered.
After sacrificing the mice on day 22, the skin of treatment area was collected and subjected to heat extraction with 0.4 mL NaOH for 1 hour. […] The experimental data were expressed as mean±standard deviation (n=3-5), using Student's t-test analysis, #p<0.05, ##p<0.01 compared with control group; *p<0.05, **p<0.01 compared with UVB-c group.

UVB-irradiated mice skin = experiment: In vivo efficacy: skin melanin after UVB irradiation, intradermal injection or topical administration (Example 4B/4C); conditions: for Melanin Mean ± SD (UVB group = 100.0): treatment period 3 weeks
Description: The IM01 formulation was investigated for in vivo efficacy via intradermal injection, either twice a week (IM01-ID/L) or once a day (IM01-ID/H). [table] The IM01 formulation was investigated for in vivo efficacy via topical administration (IM01-T), following the study design provided in Table 16 below. [table]

B16-F10 cell line [4] = experiment: In vitro whitening efficacy: melanin content (Example 7); format: cell-based, mouse
Description: as §1, §2

B16-F10 cells [5] = experiment: In vitro melanin content versus arbutin and hydroquinone (Example 6); format: cell-based, mouse
Description: Except the vehicle group, cells of the other groups were cultured with α-MSH for 24 hours first. The compositions for investigation (see Tables 19 and 20) were then added to the culture medium and the cells were further cultured for 24 hours. The rest of the experimental operation process was similar to that described in Example 3. […] [table] [table]

[6] = IM01-ID/H: ID, 23 mg/mL, once a day
[7] = IM01-ID/L: ID, 23 mg/mL, twice a week
[8] = IM01-T: topical, 45 mg/mL, once a day

SMILES: Oc1cc(O)cc(/C=C/c2ccc(O)cc2O)c1 [IM01, 4-[(E)-2-(3,5-dihydroxyphenyl)ethenyl]benzene-1,3-diol]
- Cytotoxicity (B16-F10 cell line [1]): low cytotoxicity
- Relative cell viability (%) (B16-F10 cell line [1]; 8 μM): 98.4 ± 2.0%
- Relative cell viability (%) (B16-F10 cell line [1]; 16 μM): 96.7 ± 2.4%
- Relative cell viability (%) (B16-F10 cell line [1]; 32 μM): 98.7 ± 2.2%
- Relative cell viability (%) (B16-F10 cell line [1]; 60 μM): 88.5 ± 1.4%
- Relative cell viability (%) (B16-F10 cell line [1]; 64 μM): 93.0 ± 1.0%
- Relative cell viability (%) (B16-F10 cell line [1]; 120 μM): 84.9 ± 0.4%
- Relative cell viability (%) (B16-F10 cell line [1]; 128 μM): 89.8 ± 3.7%
- Relative cell viability (%) (B16-F10 cell line [1]; 181 μM): 79.9 ± 5.6%
- Relative cell viability (%) (B16-F10 cell line [1]; 256 μM): 74.6 ± 7.0%
- Melanin production compared with vehicle group (without α-MSH) (B16-F10 cells [2]; IM01-C4, IM01-C5 and IM01-C6 groups (22.6, 32, 64 ppm)): lower than that of the vehicle group
- EC50 (B16-F10 cells [2]; Mus musculus, B16-F10, printed as equal to 15.2 ppm): 62 µM
- Melanin Content Inhibition Ability (%) Mean (B16-F10 cells [2]; TA 8 ppm (IM01-C1)): 20.1%
- Melanin content (%) Mean (B16-F10 cells [2]; TA 8 ppm (IM01-C1), α-MSH 0.1 μM 24 h then TA 24 h, relative to α-MSH control): 79.9%
- Melanin Content Inhibition Ability (%) Mean (B16-F10 cells [2]; TA 11.3 ppm (IM01-C2)): 41.1%
- Melanin content (%) Mean (B16-F10 cells [2]; TA 11.3 ppm (IM01-C2), α-MSH 24 h then TA 24 h): 58.9%
- Melanin Content Inhibition Ability (%) Mean (B16-F10 cells [2]; TA 16 ppm (IM01-C3)): 56.8%
- Melanin content (%) Mean (B16-F10 cells [2]; TA 16 ppm (IM01-C3), α-MSH 24 h then TA 24 h): 43.2%
- Melanin Content Inhibition Ability (%) Mean (B16-F10 cells [2]; TA 22.6 ppm (IM01-C4)): 66.7%
- Melanin content (%) Mean (B16-F10 cells [2]; TA 22.6 ppm (IM01-C4), α-MSH 24 h then TA 24 h): 33.3%
- Melanin Content Inhibition Ability (%) Mean (B16-F10 cells [2]; TA 32 ppm (IM01-C5)): 74%
- Melanin content (%) Mean (B16-F10 cells [2]; TA 32 ppm (IM01-C5), α-MSH 24 h then TA 24 h): 26.0%
- Melanin Content Inhibition Ability (%) Mean (B16-F10 cells [2]; TA 64 ppm (IM01-C6)): 84.6%
- Melanin content (%) Mean (B16-F10 cells [2]; TA 64 ppm (IM01-C6), α-MSH 24 h then TA 24 h): 15.4%
- EC50 (melanin content) (B16-F10 cells [2]; α-MSH 24 h then TA 24 h): around 15.2 ppm
- Melanin content (%) Mean (B16-F10 cells [3]; TA 89.19 μM (IM01-20)): 67.4%
- Melanin content (%) Mean (B16-F10 cells [3]; TA 178.38 μM (IM01-40)): 43.5%
- In vitro effect in reducing melanin relative to 5-[(E)-2-(4-hydroxyphenyl)ethenyl]benzene-1,3-diol and arbutin (B16-F10 cells [3]; Table 18 concentrations): better in vitro effects in reducing melanin
- Skin color compared with UVB-c group (HRM-2 mice; IM01-ID group and IM01-Topical group, intradermal injection or smearing): whiter and brighter than that of the UVB-c group
- Melanin level lower than the UVB-c group by (HRM-2 mice; IM01-ID group, intradermal, p<0.01): 33.6%
- Percentage change of melanin Mean ± SD (% of UVB-c) (HRM-2 mice; IM01-ID: intradermal, 20 mg/mL, 0.5 mg/cm^2, once a week): −33.6 ± 6.0 % of UVB-c
- Melanin Content Mean ± SD (% of UVB-c) (HRM-2 mice; IM01-ID: intradermal, 20 mg/mL, 0.5 mg/cm^2, once a week, three times, skin collected day 22): 66.4 ± 6.0 % of UVB-c
- Melanin level lower than the UVB-c group by (HRM-2 mice; IM01-Topical group, p<0.05): 30.6%
- Percentage change of melanin Mean ± SD (% of UVB-c) (HRM-2 mice; IM01-Topical: 20 mg/mL, 0.4-0.5 mg/cm^2, once a day): −30.6 ± 7.6 % of UVB-c
- Melanin Content Mean ± SD (% of UVB-c) (HRM-2 mice; IM01-Topical: 20 mg/mL, 0.4-0.5 mg/cm^2, once a day for 21 days, day 22): 69.4 ± 7.6 % of UVB-c
- Reduction of melanin production (UVB-irradiated mice skin; [6]): 23.1%
- Melanin Mean ± SD (UVB group = 100.0) (UVB-irradiated mice skin; [6]): 76.9 ± 12.7
- Reduction of melanin production (UVB-irradiated mice skin; [7]): 13.9%
- Melanin Mean ± SD (UVB group = 100.0) (UVB-irradiated mice skin; [7]): 86.1 ± 14.5
- Reduction of melanin production (UVB-irradiated mice skin; [8]): 21.4%
- Melanin Mean ± SD (UVB group = 100.0) (UVB-irradiated mice skin; [8]): 79.6 ± 12.5
- EC50 (B16-F10 cell line [4]; Mus musculus, B16-F10, α-MSH 24 hr + TA 24 hr, 4-256 μM, read-out: EC50 value (reduction of melanin levels induced by α-MSH)): ~41.2 µM
- Melanin content (%) (B16-F10 cell line [4]; TA 4 μM, α-MSH 24 hr + TA 24 hr, Table 24): 90.2 ± 6.1%
- Melanin content (%) (B16-F10 cell line [4]; TA 8 μM, Table 24): 83.2 ± 6.9%
- Melanin content (%) (B16-F10 cell line [4]; TA 16 μM, Table 24): 81.8 ± 4.5%
- Melanin content (%) (B16-F10 cell line [4]; TA 32 μM, Table 24): 67.7 ± 7.1%
- Melanin content (%) (B16-F10 cell line [4]; TA 60 μM (/L of IM01 and HQ), HQ vehicle DDW, Table 26): 51.7 ± 2.6%
- Melanin content (%) (B16-F10 cell line [4]; TA 64 μM, Table 24): 43.0 ± 4.3%
- Melanin content (%) (B16-F10 cell line [4]; TA 120 μM (/H of IM01 and HQ), HQ vehicle DDW, Table 26): 37.7 ± 0.4%
- Melanin content (%) (B16-F10 cell line [4]; TA 128 μM, Table 24): 36.1 ± 2.9%
- Melanin content (%) (B16-F10 cell line [4]; TA 181 μM, Table 24): 34.8 ±3.5%
- Melanin content (%) (B16-F10 cell line [4]; TA 256 μM, Table 24): 25.9 ± 1.5%
- Melanin inhibition activity compared with arbutin (B16-F10 cell line [4]; Table 25 concentrations, FIG. 7C): much greater than arbutin
- Effect in reducing melanin compared with Arbutin (450 μM or 900 μM) and hydroquinone (120 μM) (B16-F10 cells [5]; 120 μM): better than that of the whitening agent Arbutin
- Melanin content compared with vehicle group (no α-MSH induction) (B16-F10 cells [5]; 120 μM): even lower than that of the vehicle group
- Melanin content (%) Mean ± SD (B16-F10 cells [5]; TA 30 μM, α-MSH 24 hr + TA 24 hr, Table 22 experiment): 84.6 ± 3.6%
- Melanin content (%) Mean ± SD (B16-F10 cells [5]; TA 60 μM, Table 22 experiment): 52.8 ± 3.8%
- Melanin content (%) Mean ± SD (B16-F10 cells [5]; TA 60 μM, α-MSH 24 hr + TA 24 hr, Table 21 experiment): 47.6 ± 3.4%
- Melanin content (%) Mean ± SD (B16-F10 cells [5]; TA 120 μM, Table 21 experiment): 26.2 ± 2.4%
- Melanin content (%) Mean ± SD (B16-F10 cells [5]; TA 120 μM, Table 22 experiment): 33.9 ± 1.4%
- Melanin content (%) Mean ± SD (B16-F10 cells [5]; TA 180 μM, Table 22 experiment): 11.7 ± 2.3%

SMILES: Oc1ccc(/C=C/c2cc(O)cc(O)c2)cc1 [IM00, 5-[(E)-2-(4-hydroxyphenyl)ethenyl]benzene-1,3-diol]
- Melanin content (%) Mean (B16-F10 cells [3]; TA 87.62 μM (IM00-20)): 98.9%
